Measured values as given in patent US20250215029A1 (Recludix Pharma, Inc., priority 2022, published 2025).

Columns and labels:
[1] = molecular target: T1, pY705-STAT3 in PBMC (Homo sapiens, UniProt P40763); experiment: MSD-pSTAT-PBMC Assay (pSTAT3, IL-6 stimulated); type: cell-based; conditions: PBMC, compound 3 hrs, then 10 ng/mL IL-6 for 10 min; Table 1114; read-out: pSTAT3
T1 construct: Cryopreserved Peripheral Blood Mononuclear Cells (PBMC) are from AllCells; host or cells: cryopreserved PBMC
Summary of the method: (§1)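 MSD electrochemiluminescence read-out: total STAT captured, probed with anti-pY641-STAT6 or anti-pY705-STAT3. Human PBMC, 3 h compound pretreatment, 10 min stimulation (IL-4 1 ng/mL or IL-6 10 ng/mL). Unstimulated signal subtracted, DMSO-normalized, variable-slope IC50.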

[2] = molecular target: T2, pY641-STAT6 in PBMC (Homo sapiens, UniProt P42226); experiment: MSD-pSTAT-PBMC Assay (pSTAT6, IL-4 stimulated); type: cell-based; conditions: PBMC, compound 3 hrs, then 1 ng/mL IL-4 for 10 min; Table 1114; read-out: pSTAT6
T2 construct: Cryopreserved Peripheral Blood Mononuclear Cells (PBMC) are from AllCells; host or cells: cryopreserved PBMC
T2 sequence (P42226 1-847): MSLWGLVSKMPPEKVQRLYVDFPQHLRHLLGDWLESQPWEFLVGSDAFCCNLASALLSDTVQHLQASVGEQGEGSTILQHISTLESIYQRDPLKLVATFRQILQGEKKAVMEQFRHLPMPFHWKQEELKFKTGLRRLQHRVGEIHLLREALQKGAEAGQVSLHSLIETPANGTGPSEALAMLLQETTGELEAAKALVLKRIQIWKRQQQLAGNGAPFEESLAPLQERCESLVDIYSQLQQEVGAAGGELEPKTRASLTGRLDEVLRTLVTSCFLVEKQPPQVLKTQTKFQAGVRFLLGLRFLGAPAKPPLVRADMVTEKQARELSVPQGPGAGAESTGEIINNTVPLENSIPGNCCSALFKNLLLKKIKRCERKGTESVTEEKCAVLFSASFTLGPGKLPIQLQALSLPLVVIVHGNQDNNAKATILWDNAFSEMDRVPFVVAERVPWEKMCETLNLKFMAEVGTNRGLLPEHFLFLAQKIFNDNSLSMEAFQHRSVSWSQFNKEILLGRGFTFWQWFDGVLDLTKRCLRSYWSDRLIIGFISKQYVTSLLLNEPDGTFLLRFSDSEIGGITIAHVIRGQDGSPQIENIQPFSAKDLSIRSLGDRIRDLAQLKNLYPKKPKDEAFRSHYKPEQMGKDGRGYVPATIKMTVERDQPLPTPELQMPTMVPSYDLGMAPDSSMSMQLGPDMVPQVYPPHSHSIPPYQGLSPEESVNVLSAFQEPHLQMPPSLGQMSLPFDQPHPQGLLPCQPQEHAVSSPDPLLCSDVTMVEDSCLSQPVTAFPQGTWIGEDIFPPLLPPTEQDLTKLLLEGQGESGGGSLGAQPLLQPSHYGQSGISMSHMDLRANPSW
Summary of the method: as §1

T1 sequence (P40763 whole entry): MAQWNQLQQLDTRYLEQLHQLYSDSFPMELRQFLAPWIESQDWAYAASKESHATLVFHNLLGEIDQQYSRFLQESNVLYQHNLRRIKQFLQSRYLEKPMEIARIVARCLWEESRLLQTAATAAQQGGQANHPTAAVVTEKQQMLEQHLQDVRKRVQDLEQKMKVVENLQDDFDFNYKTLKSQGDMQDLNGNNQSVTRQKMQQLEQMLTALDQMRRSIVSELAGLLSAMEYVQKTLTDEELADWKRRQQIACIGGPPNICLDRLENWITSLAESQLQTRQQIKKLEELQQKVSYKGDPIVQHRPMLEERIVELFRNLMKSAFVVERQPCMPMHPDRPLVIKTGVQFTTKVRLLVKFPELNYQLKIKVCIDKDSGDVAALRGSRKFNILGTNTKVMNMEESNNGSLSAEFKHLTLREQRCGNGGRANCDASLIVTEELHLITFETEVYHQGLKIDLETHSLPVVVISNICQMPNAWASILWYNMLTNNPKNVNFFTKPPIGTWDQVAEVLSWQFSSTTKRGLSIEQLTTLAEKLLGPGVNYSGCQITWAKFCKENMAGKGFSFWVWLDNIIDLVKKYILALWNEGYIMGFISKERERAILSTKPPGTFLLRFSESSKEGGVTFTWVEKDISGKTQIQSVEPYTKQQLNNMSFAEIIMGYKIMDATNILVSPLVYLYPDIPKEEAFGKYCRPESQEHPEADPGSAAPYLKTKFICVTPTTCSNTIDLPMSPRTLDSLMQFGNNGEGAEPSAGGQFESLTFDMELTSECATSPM

Row | SMILES | IC50 [1] | IC50 [2]
1 | CC(C)(C)C(=O)OCOP(=O)(Cc1ccc2sc(C(=O)N[C@H]3CCCC[C@H]4CC[C@@H](C(=O)N5C[C@@H](C#N)[C@H](c6ccccc6)C5)N4C3=O)cc2c1)OCOC(=O)C(C)(C)C (single isomer, unassigned) [Compound 144, ((((2-(((3S,6S,10aS)-3-((3S,4R or 3R,4S)-3-cyano-4-phenylpyrrolidine-1-carbonyl)-5-oxodecahydro-pyrrolo[1,2-a]azocin-6-yl)carbamoyl)benzo[b]thiophen-5-yl)methyl)phosphoryl)bis (oxy))bis (methylene) bis(2,2-dimethylpropanaote)] | 1 to 3 µM | 0.1 to 1 µM
2 | CC(C)OC(=O)OCOP(=O)(Cc1ccc2sc(C(=O)N[C@H]3CCCC[C@H]4CC[C@@H](C(=O)N5C[C@@H](C#N)[C@H](c6ccccc6)C5)N4C3=O)cc2c1)OCOC(=O)OC(C)C (single isomer, unassigned) [Compound 148, ((((2-(((3S,6S,10aS)-3-((3S,4R or 3R,4S)-3-cyano-4-phenylpyrrolidine-1-carbonyl)-5-oxodecahydro-pyrrolo[1,2-a]azocin-6-yl)carbamoyl)benzo[b]thiophen-5-yl)methyl)phosphoryl)bis(oxy))bis(methylene) diisopropyl bis(carbonate)] | > 3 µM | 0.1 to 1 µM
3 | CC(C)(C)C(=O)SCCOP(=O)(Cc1ccc2sc(C(=O)N[C@H]3CCCC[C@H]4CC[C@@H](C(=O)N5C[C@@H](C#N)[C@H](c6ccccc6)C5)N4C3=O)cc2c1)OCCSC(=O)C(C)(C)C (single isomer, unassigned) [Compound 149, S,S′-(((((2-(((3S,6S,10aS)-3-((3S,4R or 3R,4S)-3-cyano-4-phenylpyrrolidine-1-carbonyl)-5-oxodecahydro-pyrrolo[1,2-a]azocin-6-yl)carbamoyl)benzo[b]thiophen-5-yl)methyl)phosphoryl)bis (oxy))bis(ethane-2,1-diyl))bis(2,2-dimethyl-propanethioate)] | > 3 µM | > 3 µM
4 | CCCC(=O)SCCOP(=O)(OCCSC(=O)CCC)C(F)(F)c1ccc2sc(C(=O)N[C@H]3CCCC[C@H]4CC[C@@H](C(=O)N5C[C@@H](C#N)[C@H](c6ccccc6)C5)N4C3=O)cc2c1 (single isomer, unassigned) [Compound 152, S,S′-(((((2-(((3S,6S,10aS)-3-((3S,4R or 3R,4S)-3-cyano-4-phenylpyrrolidine-1-carbonyl)-5-oxodecahydro-pyrrolo[1,2-a]azocin-6-yl)carbamoyl)benzo[b]thiophen-5-yl)difluoromethyl)phosphoryl)bis(oxy))bis(ethane-2,1-diyl)) dibutanethioate] | 1 to 3 µM | 0.1 to 1 µM
5 | CC(C)CC(=O)SCCCCOP(=O)(OCCCCSC(=O)CC(C)C)C(F)(F)c1ccc2sc(C(=O)N[C@H]3CCCC[C@H]4CC[C@@H](C(=O)N5CC(C#N)C(c6ccccc6)C5)N4C3=O)cc2c1 (single isomer, unassigned) [Compound 153, S,S′-(((((2-(((3S,6S,10aS)-3-((3S,4R or 3R,4S)-3-cyano-4-phenylpyrrolidine-1-carbonyl)-5-oxodecahydro-pyrrolo[1,2-a]azocin-6-yl)carbamoyl)benzo[b]thiophen-5-yl)difluoromethyl)phosphoryl)bis (oxy))bis(butane-4,1-diyl)) bis(3-methylbutane thioate)] | > 3 µM | > 3 µM
6 | CC(C)CC(=O)SCCOP(=O)(OCCSC(=O)CC(C)C)C(F)(F)c1ccc2sc(C(=O)N[C@H]3CCCC[C@H]4CC[C@@H](C(=O)N5C[C@@H](C#N)[C@H](c6cc[nH]c(=O)c6)C5)N4C3=O)cc2c1 (single isomer, unassigned) [Compound 154, S,S′-(((((2-(((3S,6S,10aS)-3-((3S,4R or 3R,4S)-3-cyano-4-(2-oxo-1,2-dihydropyridin-4-yl)pyrrolidine-1-carbonyl)-5-oxodecahydro-pyrrolo[1,2-a]azocin-6-yl)carbamoyl)benzo [b]thiophen-5-yl)difluoromethyl)phosphoryl)bis (oxy))bis(ethane-2,1-diyl)) bis(3-methylbutane thioate)] | 0.1 to 1 µM | 0.1 to 1 µM
7 | CC(C)CC(=O)SCCOP(=O)(OCCSC(=O)CC(C)C)C(F)(F)c1ccc2ccc(C(=O)N[C@H]3CCCC[C@H]4CC[C@@H](C(=O)N5C[C@H](c6cc[nH]c(=O)c6)[C@@H](C#N)C5)N4C3=O)cc2c1 (single isomer, unassigned) [Compound 155, S,S′-(((((7-(((3S,6S,10aS)-3-((3R,4S or 3S,4R)-3-cyano-4-(2-oxo-1,2-dihydropyridin-4-yl)pyrrolidine-1-carbonyl)-5-oxodecahydro-pyrrolo[1,2-a]azocin-6-yl)carbamoyl)naphthalen-2-yl)difluoromethyl)phosphoryl)bis(oxy))bis(ethane-2,1-diyl)) bis(3-methylbutane thioate)] | 0.1 to 1 µM | < 0.1 µM
8 | CC(C)C(=O)SCCOP(=O)(OCCSC(=O)C(C)C)C(F)(F)c1ccc2sc(C(=O)N[C@H]3CCCCC4CC[C@@H](C(=O)N5C[C@H](c6ccccc6)[C@@H](C#N)C5)N4C3=O)cc2c1 (single isomer, unassigned) [Compound 156, S,S′-(((((2-(((3S,6S,10aS)-3-((3S,4R or 3R,4S)-3-cyano-4-phenylpyrrolidine-1-carbonyl)-5-oxodecahydro-pyrrolo[1,2-a]azocin-6-yl)carbamoyl)benzo[b]thiophen-5-yl)difluoromethyl)phosphoryl)bis(oxy))bis(ethane-2,1-diyl)) bis(2-methylpropane-thioate)] | 0.1 to 1 µM | < 0.1 µM
9 | CC(C)(C(=O)SCCOP(=O)(OCCSC(=O)C(C)(C)C(F)(F)F)C(F)(F)c1ccc2sc(C(=O)N[C@H]3CCCC[C@H]4CC[C@@H](C(=O)N5C[C@@H](C#N)[C@H](c6ccccc6)C5)N4C3=O)cc2c1)C(F)(F)F (single isomer, unassigned) [Compound 159, S,S′-(((((2-(((3S,6S,10aS)-3-((3S,4R or 3R,4S)-3-cyano-4-phenylpyrrolidine-1-carbonyl)-5-oxodecahydro-pyrrolo[1,2-a]azocin-6-yl)carbamoyl)benzo[b]thiophen-5-yl)difluoromethyl)phosphoryl)bis(oxy))bis(ethane-2,1-diyl)) bis(3,3,3-trifluoro-2,2-dimethylpropane-thioate)] | > 3 µM | > 3 µM
10 | CC(C)CC(=O)SCCOP(=O)(OCCSC(=O)CC(C)C)C(F)(F)c1ccc2sc(C(=O)N[C@H]3CCCC(C)[C@H]4CC[C@@H](C(=O)N5C[C@H](c6cc[nH]c(=O)c6)[C@@H](C#N)C5)N4C3=O)cc2c1 (single isomer, unassigned) [Compound 162, S,S′-(((((2-(((3S,6S,10aR)-3-((3R,4S or 3S,4R)-3-cyano-4-(2-oxo-1,2-dihydropyridin-4-yl)pyrrolidine-1-carbonyl)-10-methyl-5-oxodeca-hydropyrrolo[1,2-a]azocin-6-yl)carbamoyl)benzo [b]thiophen-5-yl)difluoromethyl)phosphoryl)bis(oxy))bis(ethane-2,1-diyl)) bis(3-methylbutane thioate)] | 0.1 to 1 µM | 0.1 to 1 µM
